# Test results as given in ChEMBL document CHEMBL4265905, “Synthesis and biological evaluation of novel Jiyuan Oridonin A-1,2,3-triazole-azole derivatives as antiproliferative agents” (Eur J Med Chem, 2018).
# Activity calls are given as the source filed them. No cut-off for these calls is given here.
# What was measured:
# [1] = system: ECa-109 cell line; assay: Antiproliferative activity against human ECA109 cells after 72 hrs by MTT assay; assay type: functional, cell-based; settings: ECa-109, 72 h
# [2] = system: MGC-803; assay: Antiproliferative activity against human MGC803 cells after 72 hrs by MTT assay; assay type: functional, cell-based; settings: MGC-803, 72 h
# [3] = system: PC-3; assay: Antiproliferative activity against human PC3 cells after 72 hrs by MTT assay; assay type: functional, cell-based; settings: PC-3, 72 h
# [4] = system: MCF7; assay: Antiproliferative activity against human MCF7 cells after 72 hrs by MTT assay; assay type: functional, cell-based; settings: MCF7, 72 h
# [5] = system: A549; assay: Antiproliferative activity against human A549 cells after 72 hrs by MTT assay; assay type: functional, cell-based; settings: A549, 72 h
# [6] = system: SMMC-7721; assay: Antiproliferative activity against human SMMC7721 cells after 72 hrs by MTT assay; assay type: functional, cell-based; settings: SMMC-7721, 72 h
# [7] = system: L02; assay: Cytotoxicity against human HL7702 cells up to 72 hrs by MTT assay; assay type: cell-based; settings: L02, 72 h
# [8] = system: SMMC-7721; assay: Inhibition of colony formation in human SMMC7721 cells assessed as colony formation efficiency at 2 uM after two weeks by crystal violet staining based assay; assay type: functional; set-up: scale not given: the % may be the effect or the level left
# [9] = system: SMMC-7721; assay: Inhibition of colony formation in human SMMC7721 cells after two weeks by crystal violet staining based assay; assay type: functional, cell-based
# [10] = system: SMMC-7721; assay: Cell cycle arrest in human SMMC7721 cells assessed as accumulation at G1 phase at 1 uM after 12 hrs by propidium iodide staining based flow cytometry (reference value: 39.51%); assay type: functional
# [11] = system: SMMC-7721; assay: Cell cycle arrest in human SMMC7721 cells assessed as accumulation at S phase at 1 uM after 12 hrs by propidium iodide staining based flow cytometry (reference value: 36.98%); assay type: functional
# [12] = system: SMMC-7721; assay: Cell cycle arrest in human SMMC7721 cells assessed as accumulation at G2 phase at 1 uM after 12 hrs by propidium iodide staining based flow cytometry (reference value: 18.97%); assay type: functional
# [13] = system: SMMC-7721; assay: Cell cycle arrest in human SMMC7721 cells assessed as accumulation at G1 phase at 2 uM after 12 hrs by propidium iodide staining based flow cytometry (reference value: 39.51%); assay type: functional
# [14] = system: SMMC-7721; assay: Cell cycle arrest in human SMMC7721 cells assessed as accumulation at S phase at 2 uM after 12 hrs by propidium iodide staining based flow cytometry (reference value: 36.98%); assay type: functional
# [15] = system: SMMC-7721; assay: Cell cycle arrest in human SMMC7721 cells assessed as accumulation at G2 phase at 2 uM after 12 hrs by propidium iodide staining based flow cytometry (reference value: 18.97%); assay type: functional
# [16] = system: SMMC-7721; assay: Cell cycle arrest in human SMMC7721 cells assessed as accumulation at G1 phase at 4 uM after 12 hrs by propidium iodide staining based flow cytometry (reference value: 39.51%); assay type: functional
# [17] = system: SMMC-7721; assay: Cell cycle arrest in human SMMC7721 cells assessed as accumulation at S phase at 4 uM after 12 hrs by propidium iodide staining based flow cytometry (reference value: 36.98%); assay type: functional
# [18] = system: SMMC-7721; assay: Cell cycle arrest in human SMMC7721 cells assessed as accumulation at G2 phase at 4 uM after 12 hrs by propidium iodide staining based flow cytometry (reference value: 18.97%); assay type: functional
# [19] = system: SMMC-7721; assay: Induction of apoptosis in human SMMC7721 cells assessed as viable cells at 0.5 uM after 12 hrs by Annexin V-FITC/PI staining based flow cytometry (reference value: 95.4%); assay type: functional; settings: SMMC-7721, 12 h, read-out: Activity
# [20] = system: SMMC-7721; assay: Induction of apoptosis in human SMMC7721 cells assessed as early apoptotic cells at 0.5 uM after 12 hrs by Annexin V-FITC/PI staining based flow cytometry (reference value: 2.8%); assay type: functional
# [21] = system: SMMC-7721; assay: Induction of apoptosis in human SMMC7721 cells assessed as late apoptotic cells at 0.5 uM after 12 hrs by Annexin V-FITC/PI staining based flow cytometry (reference value: 0.9%); assay type: functional
# [22] = system: SMMC-7721; assay: Induction of apoptosis in human SMMC7721 cells assessed as necrotic cells at 0.5 uM after 12 hrs by Annexin V-FITC/PI staining based flow cytometry (reference value: 0.8%); assay type: functional
# [23] = system: SMMC-7721; assay: Induction of apoptosis in human SMMC7721 cells assessed as viable cells at 1 uM after 12 hrs by Annexin V-FITC/PI staining based flow cytometry (reference value: 95.4%); assay type: functional; settings: SMMC-7721, 12 h, read-out: Activity
# [24] = system: SMMC-7721; assay: Induction of apoptosis in human SMMC7721 cells assessed as early apoptotic cells at 1 uM after 12 hrs by Annexin V-FITC/PI staining based flow cytometry (reference value: 2.8%); assay type: functional
# [25] = system: SMMC-7721; assay: Induction of apoptosis in human SMMC7721 cells assessed as late apoptotic cells at 1 uM after 12 hrs by Annexin V-FITC/PI staining based flow cytometry (reference value: 0.9%); assay type: functional
# [26] = system: SMMC-7721; assay: Induction of apoptosis in human SMMC7721 cells assessed as necrotic cells at 1 uM after 12 hrs by Annexin V-FITC/PI staining based flow cytometry (reference value: 0.8%); assay type: functional
# [27] = system: SMMC-7721; assay: Induction of apoptosis in human SMMC7721 cells assessed as viable cells at 2 uM after 12 hrs by Annexin V-FITC/PI staining based flow cytometry (reference value: 95.4%); assay type: functional; settings: SMMC-7721, 12 h, read-out: Activity
# [28] = system: SMMC-7721; assay: Induction of apoptosis in human SMMC7721 cells assessed as early apoptotic cells at 2 uM after 12 hrs by Annexin V-FITC/PI staining based flow cytometry (reference value: 2.8%); assay type: functional
# [29] = system: SMMC-7721; assay: Induction of apoptosis in human SMMC7721 cells assessed as late apoptotic cells at 2 uM after 12 hrs by Annexin V-FITC/PI staining based flow cytometry (reference value: 0.9%); assay type: functional
# [30] = system: SMMC-7721; assay: Induction of apoptosis in human SMMC7721 cells assessed as necrotic cells at 2 uM after 12 hrs by Annexin V-FITC/PI staining based flow cytometry (reference value: 0.8%); assay type: functional
# [31] = system: SMMC-7721; assay: Inhibition of cell migration in human SMMC7721 cells after 24 hrs by wound healing based inverted microscopic analysis; assay type: functional
# [32] = species: Homo sapiens; assay: Inhibition of Wnt signaling pathway in human SMMC7721 cells assessed as reduction in beta-catenin expression level up to 2 uM after 48 hrs by Western blot analysis; assay type: cell-based
# [33] = species: Homo sapiens; assay: Inhibition of Wnt signaling pathway in human SMMC7721 cells assessed as reduction in Dvl2 expression level up to 2 uM after 48 hrs by Western blot analysis; assay type: cell-based
# [34] = species: Homo sapiens; assay: Inhibition of Wnt signaling pathway in human SMMC7721 cells assessed as increase in APC expression level up to 2 uM after 48 hrs by Western blot analysis; assay type: cell-based
# [35] = species: Homo sapiens; assay: Inhibition of Wnt signaling pathway in human SMMC7721 cells assessed as increase in GSK3beta phosphorylation level up to 2 uM after 48 hrs by Western blot analysis; assay type: cell-based
smiles,measurement,setting,value
C=C1C(=O)[C@]23[C@H](O)[C@H]1C[C@H](O)[C@H]2[C@]12CCCC(C)(C)[C@H]1C[C@H]3O[C@@H]2OCCCn1cc(CN2C(=O)S/C(=C/C)C2=O)nn1,IC50,[1],2.7 µM
same,IC50,[2],0.6 µM
same,IC50,[3],5 µM
same,IC50,[4],1.5 µM
same,IC50,[5],3.5 µM
same,IC50,[6],0.2 µM
same,IC50,[7],18.1 µM
same,Activity,[8],5.7%
same,inhibition,[9],Dose-dependent effect
same,Activity,[10],45.85%
same,Activity,[11],13.84%
same,Activity,[12],37.61%
same,Activity,[13],54.97%
same,Activity,[14],12.93%
same,Activity,[15],26.8%
same,Activity,[16],75.69%
same,Activity,[17],22.27%
same,Activity,[18],3.97%
same,viability at 0.5 µM,[19],86.2%
same,Activity,[20],7.2%
same,Activity,[21],5.4%
same,Activity,[22],1.1%
same,viability at 1 µM,[23],79.3%
same,Activity,[24],13.7%
same,Activity,[25],5.8%
same,Activity,[26],1.2%
same,viability at 2 µM,[27],68.2%
same,Activity,[28],29.2%
same,Activity,[29],2.5%
same,Activity,[30],0.1%
same,inhibition,[31],Dose-dependent effect
same,inhibition,[32],Active
same,inhibition,[33],Active
same,inhibition,[34],Active
same,inhibition,[35],Active
